# Reference: US11780849B2, “Imino sulfanone inhibitors of ENPP1” (Volastra Therapeutics, Inc., priority 2020, dated 2023)
# Read-outs that look alike come from different tables or passages of the source.
# Experiments:
# ENPP-1 ECD [1] = target: T1, ENPP-1 ECD (Homo sapiens (Human), UniProt P22413); experiment: Assay 2: inhibition of ENPP1 hydrolysis of 2′,3′-cGAMP (AMP-Glo, […] enzyme)
# Procedure: Assay 2: Compared to the conditions in Assay 1, this assay has a larger dynamic range and ensures the system is under steady-state conditions by reducing the enzyme concentration in the assay.
# Test compounds were plated in a 3× dilution scheme in a 384 well plate. […] AMP Detection solution (10 μL) was added to each well, the plate centrifuged and incubated for 60 min.
# ENPP-1 ECD [2] = target: T1, ENPP-1 ECD; experiment: Assay 1: inhibition of ENPP1 hydrolysis of 2′,3′-cGAMP (AMP-Glo, […] enzyme)
# Procedure: Assay 1: Test compounds were plated in a 3× dilution scheme in a 384 well plate. […] AMP Detection solution (100 μL) was added to each well, the plate centrifuged and incubated for 60 min.
# [3] = Assay 2 (KI), ENPP1 hydrolysis of 2′,3′-cGAMP, AMP-Glo, […] ENPP-1, 24 μM cGAMP
# [4] = Assay 2 (KI), inhibition of ENPP1 hydrolysis of 2′,3′-cGAMP, no unit in Table 18 (Table 17 legend for this assay uses nM)
# [5] = Assay 1 (IC50), inhibition of ENPP1 hydrolysis of 2′,3′-cGAMP, no unit in Table 18 (Table 17 legend for this assay uses nM)
# [6] = read-out: Assay 1 (IC50), ENPP1 hydrolysis of 2′,3′-cGAMP, AMP-Glo
# [7] = Assay 1 (IC50), ENPP1 hydrolysis of 2′,3′-cGAMP, AMP-Glo
# [8] = read-out: Assay 2 (KI), ENPP1 hydrolysis of 2′,3′-cGAMP, AMP-Glo, […] ENPP-1, 24 μM cGAMP
# [9] = read-out: Assay 2 (KI), inhibition of ENPP1 hydrolysis of 2′,3′-cGAMP, no unit in Table 18 (Table 17 legend for this assay uses nM)
# [10] = read-out: Assay 1 (IC50), inhibition of ENPP1 hydrolysis of 2′,3′-cGAMP, no unit in Table 18 (Table 17 legend for this assay uses nM)
# T1 sequence (P22413 98-925): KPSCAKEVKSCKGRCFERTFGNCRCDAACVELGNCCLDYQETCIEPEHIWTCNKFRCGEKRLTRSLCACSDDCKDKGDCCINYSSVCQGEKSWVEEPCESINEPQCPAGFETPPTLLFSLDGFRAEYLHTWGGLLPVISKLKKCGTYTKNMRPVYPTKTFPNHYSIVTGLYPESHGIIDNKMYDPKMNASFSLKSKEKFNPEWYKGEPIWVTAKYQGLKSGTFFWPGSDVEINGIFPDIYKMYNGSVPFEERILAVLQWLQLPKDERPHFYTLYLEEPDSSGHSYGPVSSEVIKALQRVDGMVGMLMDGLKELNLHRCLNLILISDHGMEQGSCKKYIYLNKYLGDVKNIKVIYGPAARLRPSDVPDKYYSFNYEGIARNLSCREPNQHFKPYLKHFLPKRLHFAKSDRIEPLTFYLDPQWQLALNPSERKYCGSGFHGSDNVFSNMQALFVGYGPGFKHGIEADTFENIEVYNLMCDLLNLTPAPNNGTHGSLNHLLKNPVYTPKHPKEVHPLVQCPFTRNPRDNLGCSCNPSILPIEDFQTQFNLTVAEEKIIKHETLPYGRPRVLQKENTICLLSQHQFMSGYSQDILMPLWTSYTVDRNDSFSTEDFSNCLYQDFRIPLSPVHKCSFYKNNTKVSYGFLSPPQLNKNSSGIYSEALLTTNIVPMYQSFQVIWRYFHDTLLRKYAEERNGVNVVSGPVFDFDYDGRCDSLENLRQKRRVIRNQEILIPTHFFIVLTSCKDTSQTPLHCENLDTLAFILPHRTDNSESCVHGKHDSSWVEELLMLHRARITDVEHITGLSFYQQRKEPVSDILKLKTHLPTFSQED
SMILES,Ki (ENPP-1 ECD [1]; [3]) [nM],Ki (ENPP-1 ECD [1]; [4]) [nM],IC50 (ENPP-1 ECD [2]; [5]) [nM],IC50 (ENPP-1 ECD [2]; [6]) [nM],IC50 (ENPP-1 ECD [2]; [7]) [nM],Ki (ENPP-1 ECD [1]; [8]) [nM],Ki (ENPP-1 ECD [1]; [9]) [nM],IC50 (ENPP-1 ECD [2]; [10]) [nM]
"COc1cc2nccc(Oc3ccc([S@](C)(=N)=O)cc3)c2cc1OC [Compound 1R, (R)-(4-((6,7-dimethoxyquinolin-4-yl)oxy)phenyl)(imino)(methyl)-λ^6-sulfanone]",> 300,330,3200,> 1000,,,,
"COc1ccc2c(Oc3ccc(S(C)(=N)=O)c(F)c3)ccnc2c1 (stereo not shown) [Compound 10, (2-fluoro-4-((7-methoxyquinolin-4-yl)oxy)phenyl)(imino)(methyl)-λ^6-sulfanone]",< 3,2.8,23,,10 to 1000,,,
"COc1cc2ncnc(OCc3ccc(S(C)(=N)=O)cc3)c2cc1OC (stereo not shown) [Compound 14, (4-(((6,7-dimethoxyquinazolin-4-yl)oxy)methyl)phenyl)(imino)(methyl)-λ^6-sulfanone]",3 to 300,15,110,,10 to 1000,,,
"COc1cc2ncnc(Oc3ccc(S(C)(=N)=O)cc3)c2cc1OC (stereo not shown) [Compound 18, (4-((6,7-dimethoxyquinazolin-4-yl)oxy)phenyl)(imino)(methyl)-λ^6-sulfanone]",3 to 300,24,180,,10 to 1000,,,
"CS(=N)(=O)c1ccc(Oc2cnnc3ccccc23)cc1 (stereo not shown) [Compound 22, (4-(cinnolin-4-yloxy)phenyl)(imino)(methyl)-λ^6-sulfanone]",> 300,310,1200,> 1000,,,,
COc1cc2ncc(C#N)c(Oc3ccc([S@](C)(=N)=O)cc3)c2cc1F [Compound 44b],,,,> 1000,,> 300,350,1900
COc1ccc2c(N3CCC4(CC3)CCN([S@@](C)(=N)=O)C4)ccnc2c1 [Compound 55b],,,,10 to 1000,,3 to 300,7.3,45
COc1ccc2c(Oc3ccc([S@](=N)(=O)C4CC4)cc3)ccnc2c1 [Compound 60b],,,,10 to 1000,,3 to 300,93,520
"COc1ccc2c(N3CCC(CCS(C)(=N)=O)CC3)ccnc2c1 (stereo not shown) [Compound 69, imino(2-(1-(7-methoxyquinolin-4-yl)piperidin-4-yl)ethyl)(methyl)-λ^6-sulfanone]",3 to 300,10,55,,10 to 1000,,,
"COc1ccc2c(NCc3ccc(S(C)(=N)=O)cc3)ccnc2c1 (stereo not shown) [Compound 74, imino(4-(((7-methoxyquinolin-4-yl)amino)methyl)phenyl)(methyl)-λ^6-sulfanone]",< 3,1.7,11,,10 to 1000,,,
COc1ccc2c(OCc3ccc([S@](C)(=N)=O)cc3)ccnc2c1 [Compound 75b],,,,> 1000,,3 to 300,98,
"COc1ccc2c(Oc3ccc(CS(C)(=N)=O)cc3)ccnc2c1 (stereo not shown) [Compound 79, imino(4-((7-methoxyquinolin-4-yl)oxy)benzyl)(methyl)-λ^6-sulfanone]",3 to 300,220,740,,10 to 1000,,,
COc1ccc2c(Oc3ccc([S@](C)(=N)=O)cc3)ccnc2c1 [Compound 80b],,,,10 to 1000,,3 to 300,13,180
"COc1cccc2c(Oc3ccc(S(C)(=N)=O)cc3)ncnc12 (stereo not shown) [Compound 84, imino(4-((8-methoxyquinazolin-4-yl)oxy)phenyl)(methyl)-λ^6-sulfanone]",3 to 300,210,1300,> 1000,,,,
"COc1ccc2c(-c3ccc(CCS(C)(=N)=O)cc3)ccnc2c1 (stereo not shown) [Compound 98, imino(4-(7-methoxyquinolin-4-yl)phenethyl)(methyl)-λ^6-sulfanone]",3 to 300,25,140,,10 to 1000,,,
CC[S@@](=N)(=O)c1ccc(Oc2ccnc3cc(OC)ccc23)cc1 [Compound 103a],,,,> 1000,,> 300,450,1600
COc1cc2nccc(Oc3ccc([S@@](C)(=N)=O)cc3)c2cc1F [Compound 114b],,,,10 to 1000,,3 to 300,> 25,77
"COc1cc2nccc(Oc3ccc(S(C)(=N)=O)c(F)c3)c2cc1OC (stereo not shown) [Compound 115, {4-[(6,7-dimethoxyquinolin-4-yl)oxy]-2-fluorophenyl}(imino)methyl-λ^6-sulfanone]",3 to 300,13,85,,10 to 1000,,,
"COc1cc2nccc(Oc3ccc(S(C)(=N)=O)cc3F)c2cc1OC (stereo not shown) [Compound 116, {4-[(6,7-dimethoxyquinolin-4-yl)oxy]-3-fluorophenyl}(imino)methyl-λ^6-sulfanone]",3 to 300,25,220,,10 to 1000,,,
"COc1ccc2c(Oc3cccc(S(C)(=N)=O)c3)ccnc2c1 (stereo not shown) [Compound 117, imino({3-[(7-methoxyquinolin-4-yl)oxy]phenyl})methyl-λ^6-sulfanone]",3 to 300,94,180,,10 to 1000,,,
"COc1cccc2c(Oc3ccc(S(C)(=N)=O)cc3)ccnc12 (stereo not shown) [Compound 118, imino({4-[(8-methoxyquinolin-4-yl)oxy]phenyl})methyl-λ^6-sulfanone]",3 to 300,36,160,,10 to 1000,,,
"COc1ccc2c(Oc3ccc(S(C)(=N)=O)cc3)cnnc2c1 (stereo not shown) [Compound 119, imino({4-[(7-methoxycinnolin-4-yl)oxy]phenyl})methyl-λ^6-sulfanone]",3 to 300,17,66,,10 to 1000,,,
COc1cc2nccc(Oc3ccc([S@](=N)(=O)C4CC4)cc3)c2cc1F [Compound 120b],,,,10 to 1000,,3 to 300,4.8,37
"CS(=N)(=O)c1ccc(Oc2ccnc3ccccc23)cc1 (stereo not shown) [Compound 125, imino(methyl)[4-(quinolin-4-yloxy)phenyl]-λ^6-sulfanone]",,110,340,,10 to 1000,,,
"COc1cc2nccc(Oc3ccc(S(C)(=N)=O)cc3)c2cc1Cl (stereo not shown) [Compound 126, {4-[(6-chloro-7-methoxyquinolin-4-yl)oxy]phenyl}(imino)methyl-λ^6-sulfanone]",3 to 300,11,39,,10 to 1000,,,
"COc1cc2nccc(Oc3ccc(S(C)(=N)=O)nc3)c2cc1OC (stereo not shown) [Compound 129, {5-[(6,7-dimethoxyquinolin-4-yl)oxy]pyridin-2-yl}(imino)methyl-λ^6-sulfanone]",3 to 300,39,260,,10 to 1000,,,
"CS(=N)(=O)c1ccc(Oc2c(C#N)cnc3cc(F)ccc23)cc1 (stereo not shown) [Compound 131, 7-fluoro-4-{4-[imino(methyl)oxo-λ^6-sulfanyl]phenoxy}quinoline-3-carbonitrile]",,,> 30000,> 1000,,,,
"COc1cccc2c(OCc3ccc(S(C)(=N)=O)cc3)ccnc12 (stereo not shown) [Compound 134, imino(4-{[(8-methoxyquinolin-4-yl)oxy]methyl}phenyl)methyl-λ^6-sulfanone]",,,1100,,,,,
"COc1cccc2c(-c3ccc(CCS(C)(=N)=O)cc3)ncnc12 (stereo not shown) [Compound 154, imino({2-[4-(8-methoxyquinazolin-4-yl)phenyl]ethyl})methyl-λ^6-sulfanone]",,,1800,> 1000,,,,
"CS(=N)(=O)Cc1ccc(-c2ccnc3ccccc23)cc1 (stereo not shown) [Compound 155, imino(methyl){[4-(quinolin-4-yl)phenyl]methyl}-λ^6-sulfanone]",,,14000,> 1000,,,,
